# Measured values as given in ChEMBL document CHEMBL1154517, “Antimitotic activity of two macrocyclic bis(bibenzyls), isoplagiochins A and B from the Liverwort Plagiochila fruticosa” (Bioorg Med Chem Lett, 2009).
# Test: Inhibition of tubulin polymerization
Structure (SMILES),IC50,Activity
Oc1ccc2c(c1)CCc1ccc(O)c(c1)-c1cc(ccc1O)/C=C\c1cccc(c1)O2 [ISOPLAGIOCHIN A],50 µM,–
Oc1ccc2c(c1)CCc1ccc(O)c(c1)-c1cc(ccc1O)CCc1cccc(c1)O2 [DIHYDROISOPLAGIOCHIN A],> 100 µM,–
Oc1ccc2cc1-c1cc(ccc1O)CCc1c(ccc(O)c1O)Oc1cccc(c1)CC2 [DIHYDROISOPLAGIOCHIN B],> 100 µM,–

# Next, values leading:
IC50,Activity,Structure (SMILES)
25 µM,Dose-dependent effect,Oc1ccc2cc1-c1cc(ccc1O)CCc1c(ccc(O)c1O)Oc1cccc(c1)/C=C\2 [ISOPLAGIOCHIN B]
2 µM,–,CC[C@]1(O)C[C@@H]2CN(CCc3c([nH]c4ccccc34)[C@@](C(=O)OC)(c3cc4c(cc3OC)N(C)[C@H]3[C@@](O)(C(=O)OC)[C@H](OC(C)=O)[C@]5(CC)C=CCN6CC[C@]43[C@@H]65)C2)C1 [VINBLASTINE]
